In article PMC8490401, “Chemical proteomic profiling reveals protein interactors of the alarmones diadenosine triphosphate and tetraphosphate” (Nature Communications, 2021):
Values belong to the compound of their own block, whether it stands above or below them.

How the values were obtained:
[1] = target: T1, decapping scavenger protein (DcpS) (Homo sapiens, UniProt Q96C86); test: HPLC assay: Ap4A hydrolysed by purified DcpS and slows m7Gp3G cleavage; format: biochemical
T1 construct: His-tagged DcpS
T1 sequence (Q96C86 2-337): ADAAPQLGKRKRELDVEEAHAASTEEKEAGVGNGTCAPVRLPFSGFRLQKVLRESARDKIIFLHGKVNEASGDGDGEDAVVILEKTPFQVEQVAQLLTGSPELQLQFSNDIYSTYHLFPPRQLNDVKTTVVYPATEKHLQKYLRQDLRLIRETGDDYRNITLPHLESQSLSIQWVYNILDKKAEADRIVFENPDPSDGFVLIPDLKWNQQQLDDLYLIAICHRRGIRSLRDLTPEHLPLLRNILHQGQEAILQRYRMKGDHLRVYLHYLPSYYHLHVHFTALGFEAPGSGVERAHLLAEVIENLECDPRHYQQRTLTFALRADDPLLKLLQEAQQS

[2] = target: T1, decapping scavenger protein (DcpS); test: HPLC cleavage assay with purified DcpS; format: biochemical
[3] = target: T1, decapping scavenger protein (DcpS); test: HPLC assay: Ap3A hydrolysed by purified DcpS and slows m7Gp3G cleavage; format: biochemical
PGK1 = target: T2, PGK1 (Homo sapiens, UniProt P00558); test: fluorescence polarization, direct titration of purified protein; format: binding
T2 sequence (P00558 2-417): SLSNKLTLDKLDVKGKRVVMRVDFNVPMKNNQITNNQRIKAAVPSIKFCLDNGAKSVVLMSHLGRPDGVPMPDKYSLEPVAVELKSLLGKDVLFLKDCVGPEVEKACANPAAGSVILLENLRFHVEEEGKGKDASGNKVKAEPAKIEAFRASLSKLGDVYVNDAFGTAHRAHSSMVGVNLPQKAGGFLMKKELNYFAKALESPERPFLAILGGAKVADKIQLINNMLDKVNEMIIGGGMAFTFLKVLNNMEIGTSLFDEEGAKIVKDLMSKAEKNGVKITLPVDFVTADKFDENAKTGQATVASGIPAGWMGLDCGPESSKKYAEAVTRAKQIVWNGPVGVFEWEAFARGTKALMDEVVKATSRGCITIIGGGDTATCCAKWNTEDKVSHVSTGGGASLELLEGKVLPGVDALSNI

LDHA = LDHA (Homo sapiens, UniProt P00338); test: as above; format: binding

SMILES: Nc1ncnc2c1ncn2[C@@H]1O[C@H](COP(=O)(O)OP(=O)(O)OP(=O)(O)OP(=O)(O)OC[C@H]2O[C@@H](n3cnc4c(N)ncnc43)[C@H](O)[C@@H]2O)[C@@H](O)[C@H]1O [Ap4A, diadenosine tetraphosphate]
HPLC assay: Ap4A hydrolysed by purified DcpS and slows m7Gp3G cleavage [1]: demonstrating that both Ap3A and Ap4A can be cleaved by DcpS

SMILES: C[n+]1cn([C@@H]2O[C@H](COP(=O)(O)OP(=O)([O-])OP(=O)(O)OC[C@H]3O[C@@H](n4cnc5c(=O)[nH]c(N)nc54)[C@H](O)[C@@H]3O)[C@@H](O)[C@H]2O)c2nc(N)[nH]c(=O)c21 [m^7Gp3G]
HPLC cleavage assay with purified DcpS [2]: HPLC profiles for the hydrolysis of m^7Gp3G (peak c) catalyzed by DcpS

SMILES: Nc1ncnc2c1ncn2[C@@H]1O[C@H](COP(=O)(O)OP(=O)(O)OP(=O)(O)OC[C@H]2O[C@@H](n3cnc4c(N)ncnc43)[C@H](O)[C@@H]2O)[C@@H](O)[C@H]1O [Ap3A, diadenosine triphosphate]
HPLC assay: Ap3A hydrolysed by purified DcpS and slows m7Gp3G cleavage [3]: demonstrating that both Ap3A and Ap4A can be cleaved by DcpS

Kd (PGK1): 37.4 ± 1.62 µM
Kd (LDHA): 35.3 ± 0.69 µM
SMILES: Nc1ncnc2c1ncn2[C@@H]1O[C@H](COP(=O)(O)OP(=O)(O)OP(=O)(O)OC[C@H]2O[C@@H](n3cnc4c(N)nc(C#CCCCNC(=O)c5ccc6c(c5)C(=O)OC65c6ccc(O)cc6Oc6cc(O)ccc65)nc43)[C@H](O)[C@@H]2O)[C@@H](O)[C@H]1O [F-Ap3A]
